Values of other authors as cited in patent US20060025476A1, “Use of methyl pyruvate for the purpose of reducing weight gain in mammals” (priority 2004, published 2006).
Like-named read-outs stand apart in the source and are kept apart here.

Assays:
[1] = tested on: LXR
[2] = tested on: UCP-1 mRNA expression; details: 4-5 h, basal or rosiglitazone-treated cells
[3] = target: T1, PPAR-alpha (Rattus norvegicus, UniProt P37230); design: from tissue; details: control and high-fat-fed rats
T1 sequence (P37230 1-468): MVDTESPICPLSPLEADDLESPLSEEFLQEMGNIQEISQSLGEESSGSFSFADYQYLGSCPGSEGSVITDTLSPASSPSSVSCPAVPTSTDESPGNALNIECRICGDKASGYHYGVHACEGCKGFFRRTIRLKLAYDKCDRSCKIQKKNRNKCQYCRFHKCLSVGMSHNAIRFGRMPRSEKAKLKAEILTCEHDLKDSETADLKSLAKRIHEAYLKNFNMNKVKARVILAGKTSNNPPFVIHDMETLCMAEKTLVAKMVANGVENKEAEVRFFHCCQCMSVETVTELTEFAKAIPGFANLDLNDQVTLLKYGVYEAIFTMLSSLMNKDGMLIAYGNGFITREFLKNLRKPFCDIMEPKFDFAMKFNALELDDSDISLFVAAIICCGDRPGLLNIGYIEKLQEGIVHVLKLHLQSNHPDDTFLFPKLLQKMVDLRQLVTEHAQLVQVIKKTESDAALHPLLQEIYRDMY

[4] = target: T1, PPAR-alpha; design: from tissue; host or cells: rat gastrocnemius muscle, in vivo; details: gastrocnemius muscle, feeding
[5] = tested on: porcine carotid arteries; details: added to amino-oxyacetic acid
[6] = tested on: PPARa/g; details: high-fat-fed rats
[7] = tested on: guinea-pig cerebral cortical synaptosomes
[8] = tested on: porcine carotid artery strips
[9] = tested on: pancreatic beta-cells
[10] = tested on: pancreatic beta-cells; remark: listed apart in the source
[11] = target: T2, K(ATP) channels (Homo sapiens, UniProt Q09428+Q14654)
T2 construct: endogenous in cells; host or cells: pancreatic beta-cells

[12] = tested on: isolated beta-cell mitochondria; details: accumulation of ATP in medium, in combination with glutamate
[13] = tested on: whole islets; details: 5 mM
[14] = tested on: Jurkat T-lymphocyte mitochondria
[15] = tested on: isolated rat pancreatic islets; details: compared with pyruvate
[16] = tested on: isolated rat pancreatic islets
[17] = tested on: pancreatic islets; details: NAD(P)H imaging with LipDH autofluorescence
[18] = tested on: fetal rat brown adipocyte primary cultures
[19] = tested on: Na(+)-K(+)-ATPase; details: 10 microM

T2 sequence (Q14654 whole entry): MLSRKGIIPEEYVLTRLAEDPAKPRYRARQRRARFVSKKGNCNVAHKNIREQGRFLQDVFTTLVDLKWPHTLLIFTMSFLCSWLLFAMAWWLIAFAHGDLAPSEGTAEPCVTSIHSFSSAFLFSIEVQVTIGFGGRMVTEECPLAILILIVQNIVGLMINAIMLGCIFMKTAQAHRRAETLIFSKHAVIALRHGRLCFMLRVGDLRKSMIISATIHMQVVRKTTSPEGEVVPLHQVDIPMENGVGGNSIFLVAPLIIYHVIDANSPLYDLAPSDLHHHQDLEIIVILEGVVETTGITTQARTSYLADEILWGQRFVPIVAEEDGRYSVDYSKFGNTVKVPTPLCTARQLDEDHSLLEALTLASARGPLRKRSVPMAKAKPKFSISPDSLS
T2 sequence (Q09428 whole entry): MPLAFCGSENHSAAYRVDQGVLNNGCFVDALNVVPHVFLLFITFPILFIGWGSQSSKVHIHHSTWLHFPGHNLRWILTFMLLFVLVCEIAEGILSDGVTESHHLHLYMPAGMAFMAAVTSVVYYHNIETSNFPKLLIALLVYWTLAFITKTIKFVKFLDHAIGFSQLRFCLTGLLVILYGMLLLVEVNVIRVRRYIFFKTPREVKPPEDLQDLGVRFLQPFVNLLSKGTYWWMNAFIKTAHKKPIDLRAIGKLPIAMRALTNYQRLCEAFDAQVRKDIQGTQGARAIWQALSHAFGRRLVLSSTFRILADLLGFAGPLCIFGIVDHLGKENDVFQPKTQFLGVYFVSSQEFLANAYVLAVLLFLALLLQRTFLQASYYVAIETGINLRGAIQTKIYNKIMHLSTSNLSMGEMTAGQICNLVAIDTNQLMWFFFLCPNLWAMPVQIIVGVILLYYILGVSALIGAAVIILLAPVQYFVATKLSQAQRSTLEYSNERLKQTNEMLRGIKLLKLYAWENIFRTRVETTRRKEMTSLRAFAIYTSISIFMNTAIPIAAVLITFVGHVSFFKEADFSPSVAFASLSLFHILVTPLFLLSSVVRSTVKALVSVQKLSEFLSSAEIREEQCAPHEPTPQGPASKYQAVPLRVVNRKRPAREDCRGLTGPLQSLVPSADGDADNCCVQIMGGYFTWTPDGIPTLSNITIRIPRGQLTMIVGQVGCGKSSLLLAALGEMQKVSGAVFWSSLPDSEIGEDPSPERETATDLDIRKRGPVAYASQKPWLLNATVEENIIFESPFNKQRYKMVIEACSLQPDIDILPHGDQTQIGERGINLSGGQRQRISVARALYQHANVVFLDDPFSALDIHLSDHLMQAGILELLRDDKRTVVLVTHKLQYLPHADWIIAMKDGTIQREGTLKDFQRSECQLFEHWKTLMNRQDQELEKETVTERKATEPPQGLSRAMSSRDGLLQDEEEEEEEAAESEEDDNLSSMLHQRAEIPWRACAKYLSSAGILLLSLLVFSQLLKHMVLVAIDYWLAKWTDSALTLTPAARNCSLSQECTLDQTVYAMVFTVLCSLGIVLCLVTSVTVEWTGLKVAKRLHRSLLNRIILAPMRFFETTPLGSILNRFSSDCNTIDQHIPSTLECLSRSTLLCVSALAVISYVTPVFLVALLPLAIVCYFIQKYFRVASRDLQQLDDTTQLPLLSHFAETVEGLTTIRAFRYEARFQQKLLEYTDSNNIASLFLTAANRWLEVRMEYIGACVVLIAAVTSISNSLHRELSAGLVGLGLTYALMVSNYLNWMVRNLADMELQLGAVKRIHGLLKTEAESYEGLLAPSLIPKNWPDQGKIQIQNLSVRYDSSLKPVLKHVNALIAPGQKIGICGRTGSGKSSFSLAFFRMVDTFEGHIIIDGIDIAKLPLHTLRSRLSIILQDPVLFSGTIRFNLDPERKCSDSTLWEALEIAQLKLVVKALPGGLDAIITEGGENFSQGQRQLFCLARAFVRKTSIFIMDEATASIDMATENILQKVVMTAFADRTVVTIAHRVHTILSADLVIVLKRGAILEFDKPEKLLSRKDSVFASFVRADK

Q: With O=S(=O)(c1ccccc1)N(CC(F)(F)F)c1ccc(C(O)(C(F)(F)F)C(F)(F)F)cc1 [T0901317] as the molecule, how does the “suppressive effects of LXRs on PPARa-induced PPRE-luciferase activity” value [1] read?
A: dose dependently enhanced

Q: For COc1cccc(-c2cc(=O)c3ccccc3o2)c1N [PD98059], which “negative effect of TNF-alpha on UCP-1 mRNA expression” value [2] is on record?
A: reversed

Q: What does the source list for Cc1cccc(Nc2cc(Cl)nc(SCC(=O)O)n2)c1C [WY14,643]?
A: hepatic PDK4 protein [3]: significantly increased; pyruvate dehydrogenase kinase activity, PDK4 protein and PDK4 mRNA [4]: large increases

Q: With CCCCCCCC(=O)O [octanoate] as the molecule, how does the “adverse energetic effects of malate-aspartate shuttle inhibition” value [5] read?
A: normalized

Q: Which “diglyceride and long chain acyl coenzyme A in skeletal muscle” value [6] does the source give for CCO[C@@H](Cc1ccc(OCCc2ccc(OS(C)(=O)=O)cc2)cc1)C(=O)O [tesaglitazar] here?
A: decreased

Q: And the hepatic triglyceride accumulation [6]?
A: reduced

Q: And the “glucose infusion rate during hyperinsulinemic-euglycemic clamp” value ([6]; 7 d)?
A: increase

Q: For NOCC(=O)O [amino-oxyacetic acid], which “negative shift in the cytosolic NAD+/NADH redox potential” value [7] is on record?
A: 26 mV

Q: With [Cl-].[K+] [KCl] as the molecule, how does the “change in resting tone” value ([8]; 10 mM KCl, glucose-PSS) read?
A: -0.8 ± 0.8 g

Q: And the “change in resting tone (increased contraction)” value ([8]; 10 mM KCl, lactate-PSS)?
A: 1.5 ± 0.7 g

Q: And the “change in resting tone” value ([8]; 10 mM KCl, pyruvate-PSS)?
A: -2.1 ± 0.8 g

Q: With CC(C)CC[C@@H](O)[C@@H](C)[C@H]1CC[C@H]2[C@@H]3CC=C4C[C@@H](O)CC[C@]4(C)[C@H]3CC[C@]12C [22 (R)-hydroxycholesterol] as the molecule, how does the “suppressive effects of LXRs on PPARa-induced PPRE-luciferase activity” value [1] read?
A: dose dependently enhanced

Q: What does the source list for COC(=O)C(C)=O [methyl pyruvate]?
A: increase in insulin secretion relative to that induced by glucose [9]: 6 fold; concentration of maximal effect on insulin secretion ([9]; absence of glucose): 5 mM; ATP production or ATP/ADP ratio [10]: did not influence; NAD(P)H autofluorescence [10]: slightly decreased; [Ca2+]i [10]: sustained rise; depolarization of beta-cell membrane potential ([10]; 5-20 mM): depolarized the beta-cell in a concentration-dependent manner; cytosolic free Ca(2+) concentration ([10]; after an initial decrease): increased; electrical activity ([10]; presence of 0.5 mM glucose): elicited electrical activity; block of KATP [11]: block; single-channel currents ([11]; inside-out patches): blocked; K(ATP) current ([11]; standard whole-cell configuration): inhibited; ATP production with glutamate [12]: higher than that induced by pyruvate/glutamate; ATP/ADP ratio in whole islets [13]: no effect; cation current across the inner membrane of mitochondria [14]: directly inhibited; efficiency in intramitochondrial metabolism (amino acid conversion, inhibition of glucose utilization, 14CO2 output) [15]: more efficient than pyruvate; mitochondrial alkalinization [15]: more marked mitochondrial alkalinization than pyruvate; insulin release ([16]; D-glucose 16.7 mM and/or methyl ester 20.0 mM): negative insulinotropic action; insulin release ([16]; D-glucose 2.8 to 8.3 mM, ester not exceeding 10.0 mM): positive insulinotropic action; NADH and NADPH response [17]: robust NADH and NADPH response

Q: For CC1=C(/C=C/C(C)=C/C=C/C(C)=C/C(=O)O)C(C)(C)CCC1 [all-trans-retinoic acid], which “p44/p42 and p38 mitogen-activated protein kinase activation” value [18] is on record?
A: induce

Q: Which “p44/p42 and p38 mitogen-activated protein kinase activation” value [18] does the source give for CC1=C(/C=C/C(C)=C\C=C\C(C)=C\C(=O)O)C(C)(C)CCC1 [9-cis-retinoic acid] here?
A: induce

Q: For C[C@@H]1O[C@@H](O[C@H]2C[C@@H](O)[C@]3(CO)[C@H]4[C@H](O)C[C@]5(C)[C@@H](C6=CC(=O)OC6)CC[C@]5(O)[C@@H]4CC[C@]3(O)C2)[C@H](O)[C@H](O)[C@H]1O [ouabain], which “glycolysis and lactate production” value [19] is on record?
A: decreased

Q: With CC(O)C(=O)O (stereo not drawn) [lactate] as the molecule, how does the “increase of O2 consumption” value ([8]; 10 mm in PSS) read?
A: without effect
